Laboratory results taken from ChEMBL document CHEMBL4002601, “A triple exon-skipping luciferase reporter assay identifies a new CLK inhibitor pharmacophore” (Bioorg Med Chem Lett, 2017).

How the values were obtained:
[1] = target: Serine/threonine-protein kinase PLK1 (Homo sapiens) (UniProt P53350); test: Inhibition of human Plk1 using casein as substrate in presence of [gamma-33P]ATP at 1 uM after 40 mins by scintillation counter method
[2] = target: Mitogen-activated protein kinase 10 (Homo sapiens) (UniProt P53779); test: Inhibition of human JNK3 using substrate in presence of [gamma-33P]ATP at 1 uM after 40 mins by scintillation counter method
[3] = target: T1, Mitogen-activated protein kinase kinase kinase 2 (Homo sapiens) (UniProt Q9Y2U5); test: Inhibition of human MEKK2 using myelin basic protein as substrate in presence of [gamma-33P]ATP at 1 uM after 40 mins by scintillation counter method
T1 sequence (whole entry): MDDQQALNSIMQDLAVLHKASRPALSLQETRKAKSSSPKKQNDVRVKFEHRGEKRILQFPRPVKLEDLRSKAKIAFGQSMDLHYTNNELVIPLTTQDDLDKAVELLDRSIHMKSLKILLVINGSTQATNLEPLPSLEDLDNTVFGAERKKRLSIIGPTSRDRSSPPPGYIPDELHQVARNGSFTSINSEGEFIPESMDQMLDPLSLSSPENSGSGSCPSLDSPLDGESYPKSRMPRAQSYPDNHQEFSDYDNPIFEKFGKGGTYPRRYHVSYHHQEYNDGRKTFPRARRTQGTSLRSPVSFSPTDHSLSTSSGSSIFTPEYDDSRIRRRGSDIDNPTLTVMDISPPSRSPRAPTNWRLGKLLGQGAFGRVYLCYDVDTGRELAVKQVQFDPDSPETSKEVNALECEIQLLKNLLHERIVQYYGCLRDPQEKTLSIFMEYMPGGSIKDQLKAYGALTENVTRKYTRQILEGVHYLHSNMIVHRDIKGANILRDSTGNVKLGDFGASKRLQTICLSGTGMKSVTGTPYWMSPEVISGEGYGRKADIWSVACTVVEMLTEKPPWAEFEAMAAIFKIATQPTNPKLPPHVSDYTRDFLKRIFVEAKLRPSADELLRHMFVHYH

[4] = target: PI3K p110 beta/p85 alpha (Homo sapiens) (UniProt P27986+P42338); test: Inhibition of human PI3K p110beta/pI3K p85alpha at 1 uM using PIP2 as substrate in presence of biotinylated PIP3 and ATP and measured after 30 mins by HTRF method; format: protein-complex assay
[5] = target: T2, Tyrosine-protein kinase JAK3 (Homo sapiens) (UniProt P52333); test: Inhibition of human JAK3 using GGEEEEYFELVKKKK as substrate in presence of [gamma-33P]ATP at 1 uM after 40 mins by scintillation counter method
T2 sequence (whole entry): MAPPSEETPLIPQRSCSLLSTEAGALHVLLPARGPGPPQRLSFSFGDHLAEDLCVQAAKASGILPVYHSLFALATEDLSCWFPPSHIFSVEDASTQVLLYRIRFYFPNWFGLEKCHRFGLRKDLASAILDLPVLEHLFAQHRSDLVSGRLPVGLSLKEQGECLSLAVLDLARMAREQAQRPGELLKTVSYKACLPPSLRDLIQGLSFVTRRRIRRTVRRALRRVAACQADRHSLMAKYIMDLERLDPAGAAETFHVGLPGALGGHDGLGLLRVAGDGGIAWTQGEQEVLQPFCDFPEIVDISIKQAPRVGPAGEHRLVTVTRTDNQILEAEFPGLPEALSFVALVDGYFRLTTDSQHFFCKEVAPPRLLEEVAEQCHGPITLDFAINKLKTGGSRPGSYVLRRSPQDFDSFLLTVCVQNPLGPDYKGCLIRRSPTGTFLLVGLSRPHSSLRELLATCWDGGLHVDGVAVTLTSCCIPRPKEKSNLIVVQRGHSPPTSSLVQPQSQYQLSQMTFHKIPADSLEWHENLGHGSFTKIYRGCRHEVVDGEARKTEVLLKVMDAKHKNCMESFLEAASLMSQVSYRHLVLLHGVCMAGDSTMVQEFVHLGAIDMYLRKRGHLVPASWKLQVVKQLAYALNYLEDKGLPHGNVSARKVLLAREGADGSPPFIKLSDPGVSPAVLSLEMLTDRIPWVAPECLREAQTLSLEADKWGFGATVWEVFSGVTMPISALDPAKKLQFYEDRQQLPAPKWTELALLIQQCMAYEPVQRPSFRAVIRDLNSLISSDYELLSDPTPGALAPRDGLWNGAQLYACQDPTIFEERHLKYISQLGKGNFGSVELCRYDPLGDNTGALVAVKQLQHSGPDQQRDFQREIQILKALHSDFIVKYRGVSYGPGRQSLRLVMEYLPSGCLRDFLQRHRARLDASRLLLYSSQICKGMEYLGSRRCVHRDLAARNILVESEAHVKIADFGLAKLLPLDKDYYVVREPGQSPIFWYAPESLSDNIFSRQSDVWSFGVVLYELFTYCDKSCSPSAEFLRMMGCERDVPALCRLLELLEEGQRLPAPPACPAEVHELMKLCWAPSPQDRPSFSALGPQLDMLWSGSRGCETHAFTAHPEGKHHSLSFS

[6] = target: Dual specificity tyrosine-phosphorylation-regulated kinase 1A (Homo sapiens) (UniProt Q13627); test: Inhibition of human DYRK1A using RRRFRPASPLRGPPK as substrate in presence of [gamma-33P]ATP at 1 uM after 40 mins by scintillation counter method
[7] = target: Mitogen-activated protein kinase 9 (Homo sapiens) (UniProt P45984); test: Inhibition of human JNK2alpha2 using ATF2 as substrate in presence of [gamma-33P]ATP at 1 uM after 40 mins by scintillation counter method
[8] = target: Receptor tyrosine-protein kinase erbB-2 (Homo sapiens) (UniProt P04626); test: Inhibition of human ErbB2 using poly(Glu, Tyr) as substrate in presence of [gamma-33P]ATP at 1 uM after 40 mins by scintillation counter method
[9] = target: Proto-oncogene tyrosine-protein kinase Src (Homo sapiens) (UniProt P12931); test: Inhibition of human Src (1 to 530 residues) using GGEEEEYFELVKKKK as substrate in presence of [gamma-33P]ATP at 1 uM after 40 mins by scintillation counter method
[10] = target: Tyrosine-protein kinase ABL1 (Homo sapiens) (UniProt P00519); test: Inhibition of human Abl using EAIYAAPFAKK as substrate in presence of [gamma-33P]ATP at 1 uM after 40 mins by scintillation counter method
[11] = target: Tyrosine-protein kinase JAK2 (Homo sapiens) (UniProt O60674); test: Inhibition of human JAK2 using KTFCGTPEYLAPEVRREPRILSEEEQEMFRDFDYIADWC as substrate in presence of [gamma-33P]ATP at 1 uM after 40 mins by scintillation counter method
[12] = target: Vascular endothelial growth factor receptor 2 (Homo sapiens) (UniProt P35968); test: Inhibition of human KDR using myelin basic protein as substrate in presence of [gamma-33P]ATP at 1 uM after 40 mins by scintillation counter method

Chain of PI3K p110 beta/p85 alpha (Homo sapiens) (P27986 2-724 limits assumed): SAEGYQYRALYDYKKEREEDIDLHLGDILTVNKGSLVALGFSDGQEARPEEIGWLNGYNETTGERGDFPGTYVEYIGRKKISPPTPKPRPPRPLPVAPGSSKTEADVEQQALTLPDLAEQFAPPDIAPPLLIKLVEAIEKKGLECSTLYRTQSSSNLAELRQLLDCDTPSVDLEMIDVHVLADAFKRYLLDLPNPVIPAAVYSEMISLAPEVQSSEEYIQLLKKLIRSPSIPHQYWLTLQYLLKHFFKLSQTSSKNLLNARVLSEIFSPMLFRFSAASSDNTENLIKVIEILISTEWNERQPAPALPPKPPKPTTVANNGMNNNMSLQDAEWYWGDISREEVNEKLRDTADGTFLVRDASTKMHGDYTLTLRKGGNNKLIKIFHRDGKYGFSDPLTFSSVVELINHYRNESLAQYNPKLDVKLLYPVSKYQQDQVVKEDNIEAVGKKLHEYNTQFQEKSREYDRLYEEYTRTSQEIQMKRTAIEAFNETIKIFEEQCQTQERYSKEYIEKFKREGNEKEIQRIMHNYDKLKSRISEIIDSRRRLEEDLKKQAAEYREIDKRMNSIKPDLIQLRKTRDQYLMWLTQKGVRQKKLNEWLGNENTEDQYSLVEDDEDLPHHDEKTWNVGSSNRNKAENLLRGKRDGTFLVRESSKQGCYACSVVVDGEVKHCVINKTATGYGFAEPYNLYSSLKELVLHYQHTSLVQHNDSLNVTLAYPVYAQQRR
Chain of PI3K p110 beta/p85 alpha (Homo sapiens) (P42338 whole entry partner): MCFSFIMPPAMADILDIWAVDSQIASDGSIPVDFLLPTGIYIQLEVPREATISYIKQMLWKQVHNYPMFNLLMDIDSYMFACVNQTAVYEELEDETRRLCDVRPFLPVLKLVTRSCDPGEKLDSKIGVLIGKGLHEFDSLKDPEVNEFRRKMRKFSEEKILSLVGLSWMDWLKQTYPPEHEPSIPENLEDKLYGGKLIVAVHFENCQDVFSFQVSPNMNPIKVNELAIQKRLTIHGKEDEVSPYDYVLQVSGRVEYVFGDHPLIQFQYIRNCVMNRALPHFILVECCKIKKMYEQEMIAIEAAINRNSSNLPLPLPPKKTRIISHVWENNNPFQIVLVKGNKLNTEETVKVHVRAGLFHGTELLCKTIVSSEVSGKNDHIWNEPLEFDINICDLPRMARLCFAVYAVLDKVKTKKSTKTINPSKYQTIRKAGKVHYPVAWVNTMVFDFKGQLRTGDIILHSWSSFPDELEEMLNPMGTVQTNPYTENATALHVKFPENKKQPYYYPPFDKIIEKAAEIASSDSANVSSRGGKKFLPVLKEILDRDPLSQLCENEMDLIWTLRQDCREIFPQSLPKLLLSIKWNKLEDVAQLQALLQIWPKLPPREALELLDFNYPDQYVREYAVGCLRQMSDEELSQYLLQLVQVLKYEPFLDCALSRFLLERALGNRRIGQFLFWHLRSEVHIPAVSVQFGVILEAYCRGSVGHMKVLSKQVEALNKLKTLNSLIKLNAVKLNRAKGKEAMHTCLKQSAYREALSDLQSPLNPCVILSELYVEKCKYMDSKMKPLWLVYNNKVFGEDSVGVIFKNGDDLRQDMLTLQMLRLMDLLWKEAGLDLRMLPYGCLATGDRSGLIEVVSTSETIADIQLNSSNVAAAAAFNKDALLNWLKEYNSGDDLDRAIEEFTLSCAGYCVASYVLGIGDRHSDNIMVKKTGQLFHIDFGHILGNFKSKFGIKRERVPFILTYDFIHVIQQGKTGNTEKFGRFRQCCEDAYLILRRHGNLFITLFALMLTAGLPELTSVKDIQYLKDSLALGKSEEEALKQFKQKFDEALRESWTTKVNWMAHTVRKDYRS
Chain of Mitogen-activated protein kinase 9 (Homo sapiens) (P45984 whole entry, looked up): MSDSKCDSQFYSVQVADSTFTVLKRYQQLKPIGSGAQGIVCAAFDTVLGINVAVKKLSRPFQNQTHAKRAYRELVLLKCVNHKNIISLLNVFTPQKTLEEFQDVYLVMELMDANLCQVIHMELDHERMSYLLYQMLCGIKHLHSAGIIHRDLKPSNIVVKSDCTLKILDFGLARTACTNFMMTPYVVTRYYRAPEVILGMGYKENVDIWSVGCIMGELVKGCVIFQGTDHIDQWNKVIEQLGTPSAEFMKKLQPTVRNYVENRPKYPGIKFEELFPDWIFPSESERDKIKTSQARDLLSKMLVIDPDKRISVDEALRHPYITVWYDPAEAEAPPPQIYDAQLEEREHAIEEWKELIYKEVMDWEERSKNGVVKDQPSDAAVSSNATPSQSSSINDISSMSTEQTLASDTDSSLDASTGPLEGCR
Chain of Serine/threonine-protein kinase PLK1 (Homo sapiens) (P53350 whole entry): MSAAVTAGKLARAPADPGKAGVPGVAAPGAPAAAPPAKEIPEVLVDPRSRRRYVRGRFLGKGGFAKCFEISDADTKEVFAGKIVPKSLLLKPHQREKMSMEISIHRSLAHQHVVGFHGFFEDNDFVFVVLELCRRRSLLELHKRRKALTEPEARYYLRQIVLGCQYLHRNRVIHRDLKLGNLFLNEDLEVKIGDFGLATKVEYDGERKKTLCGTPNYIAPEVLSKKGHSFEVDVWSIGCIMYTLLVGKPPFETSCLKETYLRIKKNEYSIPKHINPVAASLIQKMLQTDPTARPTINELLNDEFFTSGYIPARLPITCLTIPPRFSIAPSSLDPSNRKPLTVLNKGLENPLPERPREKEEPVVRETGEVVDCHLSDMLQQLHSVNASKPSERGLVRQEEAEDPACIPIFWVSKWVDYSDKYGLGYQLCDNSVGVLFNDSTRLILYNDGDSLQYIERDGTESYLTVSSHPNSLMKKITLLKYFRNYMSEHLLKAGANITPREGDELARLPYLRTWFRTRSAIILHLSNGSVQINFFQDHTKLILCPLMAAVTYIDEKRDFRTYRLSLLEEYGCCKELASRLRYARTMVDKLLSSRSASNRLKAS
Chain of Receptor tyrosine-protein kinase erbB-2 (Homo sapiens) (P04626 whole entry, the tested form may be a part): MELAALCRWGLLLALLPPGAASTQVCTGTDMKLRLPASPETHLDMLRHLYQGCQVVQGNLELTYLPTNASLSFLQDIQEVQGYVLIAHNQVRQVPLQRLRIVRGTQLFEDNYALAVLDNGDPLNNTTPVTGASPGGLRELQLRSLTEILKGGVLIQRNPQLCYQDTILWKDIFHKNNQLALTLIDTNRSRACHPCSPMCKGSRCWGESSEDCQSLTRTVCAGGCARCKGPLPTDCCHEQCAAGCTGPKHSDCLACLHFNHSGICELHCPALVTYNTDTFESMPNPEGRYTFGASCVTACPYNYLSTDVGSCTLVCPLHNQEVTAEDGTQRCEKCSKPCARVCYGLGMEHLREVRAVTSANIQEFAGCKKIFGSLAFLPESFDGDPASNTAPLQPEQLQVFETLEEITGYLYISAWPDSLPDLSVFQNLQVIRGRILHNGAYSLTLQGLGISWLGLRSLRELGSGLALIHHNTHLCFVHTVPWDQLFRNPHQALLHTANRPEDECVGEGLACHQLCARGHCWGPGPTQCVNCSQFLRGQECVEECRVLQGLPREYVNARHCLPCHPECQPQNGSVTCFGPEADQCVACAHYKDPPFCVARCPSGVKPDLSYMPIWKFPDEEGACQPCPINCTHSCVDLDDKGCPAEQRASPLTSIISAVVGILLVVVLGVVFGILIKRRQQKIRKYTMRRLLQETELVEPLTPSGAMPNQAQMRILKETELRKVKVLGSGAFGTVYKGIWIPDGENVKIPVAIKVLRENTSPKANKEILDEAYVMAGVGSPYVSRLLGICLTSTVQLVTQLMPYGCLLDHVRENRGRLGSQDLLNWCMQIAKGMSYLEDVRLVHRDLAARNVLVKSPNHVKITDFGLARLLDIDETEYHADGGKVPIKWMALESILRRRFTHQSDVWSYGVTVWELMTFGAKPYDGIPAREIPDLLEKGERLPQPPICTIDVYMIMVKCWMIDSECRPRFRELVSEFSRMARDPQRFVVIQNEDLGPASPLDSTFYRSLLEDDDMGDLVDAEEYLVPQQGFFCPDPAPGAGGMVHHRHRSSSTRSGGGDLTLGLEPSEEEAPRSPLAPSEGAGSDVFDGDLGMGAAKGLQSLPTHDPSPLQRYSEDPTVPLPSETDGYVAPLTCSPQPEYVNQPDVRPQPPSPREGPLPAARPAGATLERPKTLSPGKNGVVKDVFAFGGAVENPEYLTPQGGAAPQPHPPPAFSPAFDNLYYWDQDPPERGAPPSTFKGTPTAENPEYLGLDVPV
Chain of Mitogen-activated protein kinase 10 (Homo sapiens) (P53779 whole entry): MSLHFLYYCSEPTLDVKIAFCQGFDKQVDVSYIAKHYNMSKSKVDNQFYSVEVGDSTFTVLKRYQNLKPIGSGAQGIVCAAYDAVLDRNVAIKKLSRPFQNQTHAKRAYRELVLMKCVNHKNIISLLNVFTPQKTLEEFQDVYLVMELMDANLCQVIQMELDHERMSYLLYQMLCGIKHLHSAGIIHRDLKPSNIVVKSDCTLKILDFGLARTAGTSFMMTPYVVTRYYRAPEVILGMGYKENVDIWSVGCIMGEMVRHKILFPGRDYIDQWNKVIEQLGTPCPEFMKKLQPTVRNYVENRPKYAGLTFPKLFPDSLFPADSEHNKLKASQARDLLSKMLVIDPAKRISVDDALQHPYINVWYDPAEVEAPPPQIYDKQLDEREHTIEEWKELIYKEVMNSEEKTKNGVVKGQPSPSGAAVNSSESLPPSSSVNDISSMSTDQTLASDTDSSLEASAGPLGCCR
Chain of Proto-oncogene tyrosine-protein kinase Src (Homo sapiens) (P12931 2-536 limits assumed): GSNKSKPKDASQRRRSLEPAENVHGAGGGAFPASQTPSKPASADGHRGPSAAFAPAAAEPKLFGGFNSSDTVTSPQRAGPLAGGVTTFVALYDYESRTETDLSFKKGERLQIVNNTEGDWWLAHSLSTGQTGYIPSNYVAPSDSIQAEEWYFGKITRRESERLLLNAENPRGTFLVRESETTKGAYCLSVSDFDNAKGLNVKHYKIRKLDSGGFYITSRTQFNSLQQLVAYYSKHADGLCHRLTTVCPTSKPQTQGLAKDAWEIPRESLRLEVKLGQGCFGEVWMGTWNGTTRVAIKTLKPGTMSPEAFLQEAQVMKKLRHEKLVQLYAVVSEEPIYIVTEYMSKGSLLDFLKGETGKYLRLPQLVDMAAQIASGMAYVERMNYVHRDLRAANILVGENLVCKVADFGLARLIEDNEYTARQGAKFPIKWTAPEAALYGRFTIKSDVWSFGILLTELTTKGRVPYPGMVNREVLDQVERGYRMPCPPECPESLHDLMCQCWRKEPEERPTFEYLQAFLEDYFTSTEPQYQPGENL

| Compound | inhibition [1] | inhibition [2] | inhibition [3] | inhibition [4] | inhibition [5] | inhibition [6] | inhibition [7] | inhibition [8] | inhibition [9] | inhibition [10] | inhibition [11] | inhibition [12] |
| --- | --- | --- | --- | --- | --- | --- | --- | --- | --- | --- | --- | --- |
| CC(C)n1cnc2c(Nc3cc(N)cc(Cl)c3)nc(N[C@@H]3CCCC[C@@H]3N)nc21 (racemic) | 60% | -10% | 48% | 4% | 0% | 19% | -6% | 3% | 78% | 8% | 8% | 4% |
| CC(C)n1cnc2c(Nc3cccc(Cl)c3)nc(N[C@H]3CCCC[C@@H]3N)nc21 | 49% | 6% | 47% | 5% | 0% | 5% | 1% | 2% | 22% | -2% | -6% | 16% |
| CC(C)n1cnc2c(Nc3cccc(Cl)c3)nc(N[C@@H]3CCCC[C@@H]3N)nc21 | 9% | -5% | 18% | 4% | 4% | 28% | 4% | 0% | 69% | 2% | 2% | -6% |
